Measurements as given in the supplement of paper PMC10307832.

Experiments:
Assay in all cases: relative viability (nuclei count vs DMSO), 5 days (fraction); higher = more cells survive
Linsitinib + Pemetrexed = compound: C[C@]1(O)C[C@@H](c2nc(-c3ccc4ccc(-c5ccccc5)nc4c3)c3c(N)nccn32)C1 [Linsitinib] + Nc1nc2[nH]cc(CCc3ccc(C(=O)N[C@@H](CCC(=O)O)C(=O)O)cc3)c2c(=O)[nH]1 [Pemetrexed] (partner 0.2 µM)
Method in brief: (§1)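 Lung cancer cell lines were pin-tool dosed in 1536-well plates on the day after seeding, with either a lone drug or a fixed anchor-drug dose plus five library-drug doses (not always all listed) in √10 steps. Nuclei were counted on 4× images after 5 days. Relative viability is the ratio of treated-well to vehicle-well nuclei counts, with each value a median of duplicate plates.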

Ispinesib + Olaparib = compound: Cc1ccc(C(=O)N(CCCN)[C@@H](c2nc3cc(Cl)ccc3c(=O)n2Cc2ccccc2)C(C)C)cc1 [Ispinesib] + O=C(c1cc(Cc2n[nH]c(=O)c3ccccc23)ccc1F)N1CCN(C(=O)C2CC2)CC1 [Olaparib] (partner 8 µM)
Method in brief: as §1

Linsitinib + Olaparib = compound: C[C@]1(O)C[C@@H](c2nc(-c3ccc4ccc(-c5ccccc5)nc4c3)c3c(N)nccn32)C1 [Linsitinib] + O=C(c1cc(Cc2n[nH]c(=O)c3ccccc23)ccc1F)N1CCN(C(=O)C2CC2)CC1 [Olaparib] (partner 8 µM)
Method in brief: as §1

Ispinesib + Linsitinib = compound: Cc1ccc(C(=O)N(CCCN)[C@@H](c2nc3cc(Cl)ccc3c(=O)n2Cc2ccccc2)C(C)C)cc1 [Ispinesib] + C[C@]1(O)C[C@@H](c2nc(-c3ccc4ccc(-c5ccccc5)nc4c3)c3c(N)nccn32)C1 [Linsitinib] (partner 1 µM)
Method in brief: as §1

Cell Line: UMC-11
- relative viability (Linsitinib + Pemetrexed; first compound 0.01 µM): 0.7
- relative viability (Linsitinib + Pemetrexed; first compound 0.03162 µM): 0.771
- relative viability (Linsitinib + Pemetrexed; first compound 0.1 µM): 0.817
- relative viability (Linsitinib + Pemetrexed; first compound 0.3162 µM): 0.597
- relative viability (Linsitinib + Pemetrexed; first compound 1 µM): 0.776
- relative viability (Ispinesib + Olaparib; first compound 0.001 µM): 0.693
- relative viability (Ispinesib + Olaparib; first compound 0.003162 µM): 0.389
- relative viability (Ispinesib + Olaparib; first compound 0.01 µM): 0.345
- relative viability (Ispinesib + Olaparib; first compound 0.03162 µM): 0.325
- relative viability (Ispinesib + Olaparib; first compound 0.1 µM): 0.272
- relative viability (Linsitinib + Olaparib; first compound 0.01 µM): 0.361
- relative viability (Linsitinib + Olaparib; first compound 0.03162 µM): 0.352
- relative viability (Linsitinib + Olaparib; first compound 0.1 µM): 0.421
- relative viability (Linsitinib + Olaparib; first compound 0.3162 µM): 0.273
- relative viability (Linsitinib + Olaparib; first compound 1 µM): 0.329
- relative viability (Ispinesib + Linsitinib; first compound 0.001 µM): 1.06
- relative viability (Ispinesib + Linsitinib; first compound 0.003162 µM): 1.05
- relative viability (Ispinesib + Linsitinib; first compound 0.01 µM): 1.05
- relative viability (Ispinesib + Linsitinib; first compound 0.03162 µM): 0.449
- relative viability (Ispinesib + Linsitinib; first compound 0.1 µM): 0.244
